Experimental findings from patent US7230017B2, “Dihydropyridinone derivatives” (Bayer Healthcare AG, priority 2002, dated 2007) are described below.

The target of assay [1] is T1, human neutrophil elastase (HNE) (Homo sapiens, UniProt P08246).
T1 construct: purchased SERVA Electrophoresis GmbH, Heidelberg, Germany #20927.01
T1 sequence (P08246 30-267): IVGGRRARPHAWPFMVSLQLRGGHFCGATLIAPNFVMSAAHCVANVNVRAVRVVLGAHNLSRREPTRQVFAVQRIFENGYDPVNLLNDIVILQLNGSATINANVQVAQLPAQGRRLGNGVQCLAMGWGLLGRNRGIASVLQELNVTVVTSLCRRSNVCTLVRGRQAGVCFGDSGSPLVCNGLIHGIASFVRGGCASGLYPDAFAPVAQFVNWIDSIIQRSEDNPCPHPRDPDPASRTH
Kind of assay: In vitro inhibition of HNE using a fluorogenic peptide substrate (continuous read-out signal, 384 MTP assay format). Format: biochemical. The conditions noted are these: substrate MeOSuc-Ala-Ala-Pro-Val-AMC, 37° C. As for the experimental part:
I. In Vitro Enzyme Assays of Human Neutrophil Elastase (HNE)
assay buffer: 0.1 M HEPES-NaOH buffer pH 7.4, 0.5 M NaCl, 0.1% (w/v) bovine serum albumin;
suitable concentration (see below) of substrate in assay buffer;
suitable concentration of test compounds diluted with assay buffer from a 10 mM stock solution in DMSO.
The test solution is prepared by mixing 10 μl of test compound dilution, 20 μl of HNE enzyme dilution (final concentration 8–0.4 μU/ml, routinely 2.1 μU/ml) and 20 μl of substrate dilution (final concentration 1 mM–1 μM, routinely 20 μM), respectively. The solution is incubated for 0–2 hrs at 37° C. (routinely one hour). The fluorescence of the liberated AMC due to the enzymatic reaction is measured at 37° C. (TECAN spectra fluor plus plate reader). […] IC50 values are determined by RFU-versus-[I] plots. Km and Km(app.) values are determined by Lineweaver-Burk plots and converted to Ki values by Dixon plots.

For assay [2], the system named is human polymorphonuclear cells (PMNs). Description: In vitro PMN elastolysis assay (3H-elastin). Format: cell-based. The conditions noted are these: 4 hours at 37° C. The procedure:
In Vitro PMN Elastolysis Assay
This assay is used to determine the elastolytic potential of human polymorphonuclear cells (PMNs) and assess the proportion of degradation due to neutrophil elastase [cf. Z. W. She et al., Am. J. Respir. Cell. Mol. Biol. 9, 386–392 (1993)].
Tritiated elastin, in suspension, is coated on to a 96 well plate at 10 μg per well. Test and reference [ZD-0892 (J. Med. Chem. 40, 1876–1885, 3173–3181 (1997), WO 95/21855) and al protease inhibitor (α1PI)] compounds are added to the wells at the appropriate concentrations. Human PMNs are separated from peripheral venous blood of healthy donors and resuspended in culture media. The neutrophils are added to the coated wells at concentrations ranging between 1×10^6 to 1×10^5 cells per well. Porcine pancreatic elastase (1.3 μM) is used as a positive control for the assay, and α1PI (1.2 μM) is used as the positive inhibitor of neutrophil elastase. The cellular control is PMNs without compound at each appropriate cell density. The cells plus compounds are incubated in a humidified incubator at 37° C. for 4 hours. The plates are centrifuged to allow the harvest of cell supernatant only. […] The plates are dried until no liquid is visible in the wells and read in a beta counter for 3 minutes per well. […]
The compounds of this invention are evaluated for their inhibitory activity in this HNE-dependent model of neutrophil elastolysis.

Take `CC1=C(C#N)C(c2ccc(C#N)cc2)C(C(N)=O)C(=O)N1c1cccc(C(F)(F)F)c1` (single isomer, unassigned; (-)) [Example 98, (−)-5-Cyano-4-(4-cyanophenyl)-6-methyl-2-oxo-1-[3-(trifluoromethyl)phenyl]-1,2,3,4-tetrahydro-3-pyridinecarboxamide]: the IC50 (usually the concentration that gives 50% inhibition) in assay [1] was 8 nM.
For `CCOC(=O)C1=C(C)N(c2cccc(C(F)(F)F)c2)C(=O)C(C(=O)OCC)C1c1ccc(C#N)cc1` (stereo not shown) [Example 1], in assay [1], the IC50 stood at 30 nM.
The same measure, in the same setting: the figure for `CCOC(=O)C1=C(C)N(c2cccc(C(F)(F)F)c2)C(=O)C(C(N)=O)C1c1ccc(C#N)cc1` (stereo not shown) [Example 3] is 20 nM; for `CC1=C(C#N)C(c2ccc(C#N)cc2)C(C(N)=O)C(=O)N1c1cccc(C(F)(F)F)c1` (stereo not shown) [Example 7, 5-Cyano-4-(4-cyanophenyl)-6-methyl-2-oxo-1-[3-(trifluoromethyl)phenyl]-1,2,3,4-tetrahydro-3-pyridinecarboxamide] it is 13 nM.
Still for that read-out and setting: the figure for `CC1=C(C#N)C(c2ccc(C#N)cc2)C(C(=O)N(C)C)C(=O)N1c1cccc(C(F)(F)F)c1` (stereo not shown) [Example 12, 5-Cyano-4-(4-cyanophenyl)-N,N,6-trimethyl-2-oxo-1-[3-(trifluoromethyl)phenyl]-1,2,3,4-tetrahydro-3-pyridinecarboxamide] is 25 nM; for `CC(=O)C1=C(C)N(c2cccc(C(F)(F)F)c2)C(=O)C(C(=O)N(C)C)C1c1ccc(C#N)cc1` (stereo not shown) [Example 13, 5-Acetyl4-(4-cyanophenyl)-N,N,6-trimethyl-2-oxo-1-[3-(trifluoromethyl)phenyl]-1,2,3,4-tetrahydro-3-pyridinecarboxamide] it is 25 nM; for `CCOC(=O)C1=C(C)N(c2cccc(C(F)(F)F)c2)C(=O)C(C(=O)OCC)C1c1cc2cc(C#N)ccc2o1` (stereo not shown) [Example 15, Diethyl 4-(5-cyano-1-benzofuran-2-yl)-6-methyl-2-oxo-1-[3-(trifluoromethyl)phenyl]-1,2,3,4-tetrahydro-3,5-pyridinedicarboxylate] it is 200 nM.
The same measure, in the same setting: the figure for `CC1=C(C#N)C(c2ccc(C#N)cc2)C(C(=O)NCCC(=O)O)C(=O)N1c1cccc(C(F)(F)F)c1` (stereo not drawn) [Example 19, N-({5-Cyano-4-(4-cyanophenyl)-6-methyl-2-oxo-1-[3-(trifluoromethyl)phenyl]-1,2,3,4-tetrahydro-3-pyridinyl}carbonyl)-β-alanine] is 25 nM; for `COCCNC(=O)C1C(=O)N(c2cccc(C(F)(F)F)c2)C(C)=C(C#N)C1c1ccc(C#N)cc1` (stereo not shown) [Example 20, 5-Cyano-4-(4-cyanophenyl)-N-(2-methoxyethyl)-6-methyl-2-oxo-1-[3-(trifluoromethyl)phenyl]-1,2,3,4-tetrahydro-3-pyridinecarboxamide] it is 30 nM.
As for `CC1=C(C#N)C(c2ccc(C#N)cc2)C(C(=O)NCCO)C(=O)N1c1cccc(C(F)(F)F)c1` (stereo not shown) [Example 68, 5-Cyano-4-(4-cyanophenyl)-6-methyl-2-oxo-1-[3-(trifluoromethyl)phenyl]-1,2,3,4-tetrahydropyridine-3-carboxylic acid (2-hydroxyethyl)amide], the IC50 in assay [1] was 15 nM.
Turning to `CCNC(=O)C1=C(C)N(c2cccc(C(F)(F)F)c2)C(=O)CC1c1ccc(C#N)cc1` (stereo not shown) [Example 77], the IC50 in assay [1] was found to be 350 nM.
On to `COc1ccc(C(=O)N[C@H](C(=O)N2CCC[C@H]2C(=O)N[C@H](C(=O)C(F)(F)F)C(C)C)C(C)C)cc1` [ZD-0892], for which, in assay [2] (n=2 different donors at 3.6×10^5 cells per well, read-out: IC50 (mean±s.e.m.)), the IC50 was found to be 45.5 ± 7.75 nM.
For the molecule “α1PI: al protease inhibitor (α1PI), used as the positive inhibitor of neutrophil elastase”, in assay [2] (at 1.2 μM, n=3 different donors at 3.6×10^5 cells per well), the “inhibition of elastolysis (mean±s.e.m.)” value amounted to 83.46±3.97%.
